# US9562084B2, “Peptides derived from NCAPG2 and their use” (NATIONAL CANCER CENTER, priority 2014, dated 2017)
# Where a SMILES comes first, the peptide text is derived from it. [ ]: non-standard residue; d: D form. pT = C[C@@H](OP(=O)(O)O)[C@H](N)C(=O)O
# Columns and labels:
# human PLK1-PBD (371-594) = target: T1, human PLK1-PBD (371-594) (Homo sapiens, UniProt P53350); test: Fluorescence polarisation binding assay for the PBD of PLK1; details: FITC-labelled peptide 10 nM, protein 0 to 4 μM
# T1 construct: The human PLK1-PBD (371-594) was amplified by PCR; GST (N, cleaved yes); made in house; host or cells: E. coli Rosetta2(DE3)pLysS
# T1 sequence (P53350 371-594): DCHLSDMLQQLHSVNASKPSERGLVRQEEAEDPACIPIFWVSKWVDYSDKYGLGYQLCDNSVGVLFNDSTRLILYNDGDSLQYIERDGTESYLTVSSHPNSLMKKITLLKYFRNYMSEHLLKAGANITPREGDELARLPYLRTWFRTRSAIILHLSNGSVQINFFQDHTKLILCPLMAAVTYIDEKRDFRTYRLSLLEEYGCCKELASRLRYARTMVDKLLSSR
# Method: The human PLK1-PBD (371-594) was amplified by PCR and cloned into the pGEX6p-1 vector using the EcoRI and XhoI restriction enzyme sites. The protein was overexpressed in E. coli Rosetta2(DE3)pLysS cells (Novagen). The cells were grown at 37° C. in 3 L of Terrific Broth medium to an OD600 of 0.6, and recombinant protein expression was induced with 0.1 mM isopropyl β-D-thiogalactopyranoside (IPTG) at 20° C. The cells were further grown at 20° C. for 20 hr after IPTG induction. The purification methods were similar to methods that have been previously reported (Cheng, K. Y., et al. The crystal structure of the human polo-like kinase-1 polo box domain and its phospho-peptide complex. EMBO J 22, 5757-68 (2003)). Briefly, the cell pellet was resuspended in ice-cold HBS buffer (10 mM HEPES pH 7.5, 200 mM NaCl, 3.4 mM EDTA, 0.01% (v/v) 1-thioglycerol) and homogenized by sonication. After sonication, the cell debris was centrifuged and supernatant was applied to GST Sepharose resin (GE Healthcare). After extensive washing with HBS buffer, protein was eluted with HBS buffer supplemented with 20 mM reduced glutathione. PreScission protease (GE Healthcare) was added to eluted protein in order to remove the fused GST and the cleavage product was diluted and re-passed through GST Sepharose column. The flow through was collected and applied to Superdex 75 prep grade column (GE Healthcare) equilibrated with HBS buffer. The purified protein was concentrated to 6 mg/ml and used for fluorescence polarization binding assay or crystal screening.
# For the fluorescence polarisation binding assay, FITC-labelled 1010pT (GVLSpTLI) or 1010T (GVLSTLI) (SEQ ID NO: 8) peptide was mixed with purified PBD and incubated in a buffer containing 10 mM HEPES (pH7.5), 50 mM NaCl, 1 mM EDTA, 1 mM DTT, and 0.0025% (v/v) Tween 20. The final protein concentrations ranged from 0 to 4 μM, and the final peptide concentration was 10 nM. Fluorescence polarisation was analysed 30 min after mixing the peptide and proteins in a 96-well plate using a VERSAmax microplate reader (Molecular Devices). Binding curves were fitted using GraphPad Prism software (GraphPad Software).
# The human PLK1-PBD (371-594), PLK2-PBD (451-685) and PLK3-PBD (412-646) genes were cloned into pGEX6p-1 vector using EcoRI/XhoI restriction sites. […] The purified PLK-PBD proteins were concentrated and used for the fluorescence polarization binding assay.
# For the fluorescence polarization binding assay, each fluorescein isothiocyanate (FITC)-labeled 1010pT (GVLSpTLI), 1010T (GVLSTLI), 1010E (GVLSELI), or 1010D (GVLSDLI) peptide was mixed with purified PLK1, PLK2 or PLK3 and incubated in a buffer containing 10 mM HEPES (pH 7.5), 50 mM NaCl, 1 mM EDTA, 1 mM DTT and 0.0025% (v/v) Tween 20. […]
# human PLK3-PBD (412-646) = target: T2, human PLK3-PBD (412-646) (Homo sapiens, UniProt Q9H4B4); test: Fluorescence polarization binding assay, PLK3-PBD; details: FITC-labelled peptide 10 nM, protein 0 to 4 uM
# T2 construct: PLK3-PBD (412-646); GST (N, cleaved yes); made in house; host or cells: E. coli Rosetta2 (DE3) pLysS
# T2 sequence (Q9H4B4 412-646): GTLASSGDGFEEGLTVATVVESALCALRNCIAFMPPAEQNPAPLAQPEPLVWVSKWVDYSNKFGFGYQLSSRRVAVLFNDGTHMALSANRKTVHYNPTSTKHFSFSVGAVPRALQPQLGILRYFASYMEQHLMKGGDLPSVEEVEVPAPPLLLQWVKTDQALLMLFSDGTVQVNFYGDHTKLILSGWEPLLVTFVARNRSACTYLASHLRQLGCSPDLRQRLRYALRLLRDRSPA
# Method: (§1) The human PLK1-PBD (371-594), PLK2-PBD (451-685) and PLK3-PBD (412-646) genes were cloned into pGEX6p-1 vector using EcoRI/XhoI restriction sites. Proteins were over expressed in E. coli strain Rosetta2 (DE3) pLysS. The cells were grown in Terrific Broth medium to an OD600 of 0.6 at 37° C. and recombinant proteins were induced with 0.1 mM isopropyl b-D-thiogalactopyranoside (IPTG) at 25° C. for PLK2 and 20° C. for PLK1 and PLK3, respectively. The cells were further grown at 25° C. (PLK2) or 20° C. (PLK1 and PLK3) for 20 h after IPTG induction. Each cell pellet was lysed with each PLK Binding buffer as described below. […] The purified PLK-PBD proteins were concentrated and used for the fluorescence polarization binding assay.
# (§2) For the fluorescence polarization binding assay, each fluorescein isothiocyanate (FITC)-labeled 1010pT (GVLSpTLI), 1010T (GVLSTLI), 1010E (GVLSELI), or 1010D (GVLSDLI) peptide was mixed with purified PLK1, PLK2 or PLK3 and incubated in a buffer containing 10 mM HEPES (pH 7.5), 50 mM NaCl, 1 mM EDTA, 1 mM DTT and 0.0025% (v/v) Tween 20. […] Fluorescence polarization was analyzed 30 min after mixing the peptide and proteins in a 96-well plate using an INFINTE 200 PRO (Tecan). […]
# human PLK2-PBD (451-685) = target: T3, human PLK2-PBD (451-685) (Homo sapiens, UniProt Q9NYY3); test: Fluorescence polarization binding assay, PLK2-PBD; details: FITC-labelled peptide 10 nM, protein 0 to 4 uM
# T3 construct: PLK2-PBD (451-685); GST (N, cleaved yes); made in house; host or cells: E. coli Rosetta2 (DE3) pLysS
# T3 sequence (Q9NYY3 451-685): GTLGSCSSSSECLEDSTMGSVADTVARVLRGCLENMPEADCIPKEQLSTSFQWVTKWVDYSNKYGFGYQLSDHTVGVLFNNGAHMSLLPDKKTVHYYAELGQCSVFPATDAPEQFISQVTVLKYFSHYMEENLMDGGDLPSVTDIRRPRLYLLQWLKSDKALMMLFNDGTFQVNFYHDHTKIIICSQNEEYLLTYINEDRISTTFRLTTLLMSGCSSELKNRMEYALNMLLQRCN
# Method: as §1, §2
# C. elegans = test: Embryonic mitosis and development after nocodazole treatment of worms; type: in vivo; details: nocodazole alone, without capg-2 RNAi
# Method: C. elegans were cultivated on NGM plates at 20° C. as a standard culture method (Brenner, S. Genetics 77, 71-94 (1974)). The capg-2 RNAi clone was obtained from Dr. J. Ahringer's bacteria-feeding RNAi library, which was a kind gift from Dr. J. Lee (Seoul National University). The wild-type N2 strain was used for measuring embryo lethality when capg-2 RNAi was treated with nocodazole. RW10006 (HIS-72::GFP), XA3501 (GFP::HIS-11 and GFP::TBB-2), JG479 (NPP-1::GFP, mCherry::HIS-58 and GFP::TBB-2) and SA17(GFP::PLK-1) were used to determine the effects of capg-2 knockdown on mitosis. JG479 was generated by crossing XA3501 and OCF3 (NPP-1::GFP and mCherry::HIS-58). HIS-72 is histone 3, and TBB-2 is β-tubulin. Both HIS-11 and HIS-58 are histone 2B proteins (www.wormbase.org). Most strains were provided by the CGC, which is funded by the NIH Office of Research Infrastructure Programs (P40 OD010440). For capg-2 RNA interference, L4 worms were transferred to the RNAi plate, and the F1 embryos were observed. The HT115 E. coli strain, which contains the empty RNAi vector (L4440), was used as the control. […] The worms were removed after laying eggs for 12 hours, and the dead embryos were counted the next day. […]
SMILES,binding to PLK1-PBD (in words) (human PLK1-PBD (371-594)),binding to PLK1-PBD (in words) (human PLK1-PBD (371-594); listed as GVLS-pT-LI),binding to PLK3-PBD (in words) (human PLK3-PBD (412-646)),binding to PLK2-PBD (in words) (human PLK2-PBD (451-685)),effect on mitosis of embryos (C. elegans)
"CC[C@H](C)[C@H](NC(=O)[C@H](CC(C)C)NC(=O)[C@@H](NC(=O)[C@H](CO)NC(=O)[C@H](CC(C)C)NC(=O)[C@@H](NC(=O)CN)C(C)C)[C@@H](C)OP(=O)(O)O)C(N)=O [1010pT, GVLSpTLI] (H-GVLS[pT]LI-NH2; N-terminus and C-terminus assumed)",specifically binds,interacts strongly,did not bind,did not bind,–
"COC(=O)Nc1nc2ccc(C(=O)c3cccs3)cc2[nH]1 [Nocodazole, nocodazole]",–,–,–,–,did not directly affect mitosis
